Results taken from patent publication US10676534B2, “Vaults engineered for hydrophobic drug delivery” (priority 2013, dated 2020).
Converted amounts (≈) assume the structure as drawn.

What was measured:
[1] = cited from earlier work
J-Lat 10.6 cells = experiment: In vitro latent HIV activation, J-Lat 10.6 cell line assay (GFP expression); assay type: cell-based; conditions: 50 nM, without vaults, positive control, 48 hrs, N=3, ±1 SD
Description: (§1) FIGS. 10A, 10B, and 10C: FIG. 10A) In vitro latent HIV activation using bryostatin 1 sequestered in AH1 vault complexes compared to empty vault complexes on J-Lat 10.6 cells for 48 hrs. In these assays 50 nM of byrostatin 1 (without vaults) was used as a positive control and induced GFP expression in 30.6% (±0.6%) of cells. Error bars indicate ±1 SD (N=3). NS not significant, **p<0.0001 empty vault vs. Vault+Byrostatin 1 (2-sided t-test). FIG. 10B) In vitro stimulation of CD69 HIV provirus latency activation biomarker using bryostatin 1 sequestered in AH1 vault complexes compared to empty vault complexes on primary human PBMCs for 24 hrs. Positive control stimulations with 50 nM of byrostatin 1 compound (without vaults) induced CD69 expression in 69.4% (±31.3%) of cells. Error bars indicate ±1 SD (N=4 different cell donors). […]
(§2) Bryostatin 1 is an effective HIV therapeutic as it activates latent HIV provirus that remains within cellular reservoirs. […] The bryostatin 1 sequestered within AH1 vault complex (bryostatin/AH1) was assessed in vitro and in vivo for the ability to activate latent HIV provirus. […] When tested for activity in this way, bryostatin/AH1 activated CD69 expression in primary human PBMC obtained from 4 different donors in a dose dependent manner with stimulation occurring at concentrations as low as 0.1 ng/μL AH1 vault complex as analyzed by flow cytometry (FIG. 10B).

primary human PBMCs = experiment: In vitro stimulation of CD69 HIV provirus latency activation biomarker, flow cytometry; assay type: cell-based; conditions: 50 nM, without vaults, positive control, 24 hrs, N=4 donors, ±1 SD
Description: as §1, §2

SMILES: COc1cccc2c1C(=O)c1c(O)c3c(c(O)c1C2=O)C[C@@](O)(C(=O)CO)C[C@@H]3O[C@H]1C[C@H](N)[C@H](O)[C@H](C)O1 [Doxorubicin]
- solubility in water [1]: over 50 mg/mL

SMILES: CC1=C(/C=C/C(C)=C/C=C/C(C)=C/C(=O)O)C(C)(C)CCC1 [ATRA, All-trans Retinoic Acid]
- aqueous solubility (in words) [1]: aqueous insoluble

SMILES: CCC/C=C/C=C/C(=O)O[C@H]1/C(=C/C(=O)OC)C[C@H]2C[C@H]([C@@H](C)O)OC(=O)C[C@H](O)C[C@@H]3C[C@H](OC(C)=O)C(C)(C)[C@](O)(C[C@@H]4C/C(=C/C(=O)OC)C[C@H](/C=C/C(C)(C)[C@]1(O)O2)O4)O3 [Bryostatin 1]
- cells with induced GFP expression (J-Lat 10.6 cells): 30.6%
- cells with induced CD69 expression (primary human PBMCs): 69.4%

SMILES: NC(=O)c1[nH]c2ccc(Cl)cc2c1S(=O)(=O)c1ccccc1 [CSIS, 5-chloro-3-phenylsulfonylindole-2-carboxamide]
- solubility in water [1]: 1.4 µg/mL (≈ 4.18 µM)
